Assay results taken from patent publication US9676727B2, “Myxovirus therapeutics, compounds, and uses related thereto” (priority 2011, dated 2017).
≈ marks a conversion by molar mass, not a printed value. Read-outs that look alike come from different tables or passages of the source. Each block holds one compound with its values, some of them ahead of it.

Experiments:
[1] = Aqueous solubility by nephelometry; type: physicochemical; settings: for solubility: buffer, pH 7.4, aqueous buffer, kinetic from dmso stock
MTT cytotoxicity = type: cell-based; settings: African green monkey, Vero cells; averages of at least three experiments; highest concentration assessed 75 μM
MV-Alaska [2] = assay: Viral CPE-reduction assay (MeV-Alaska in Vero-SLAM cells, crystal violet); type: cell-based, Measles virus (MeV); settings: Measles morbillivirus
Description: Methods for evaluating viral activity are provided for in Yoon et al., J Biomol Screen., 2008, 13(7): 591-608 and Krumm et al., PLoS ONE, 2011, 6(5), e20069, both hereby incorporated by reference in their entirety. In certain instances, Vero-SLAM cells were infected with MeV-Alaska in four replicates per compound concentration in a 96-well plate format at an MOI of 0.4 pfu/cell in the presence of the inhibitor. At 96 hours post-infection, cell monolayers were subjected to crystal violet staining (0.1% crystal violet in 20% ethanol), and the absorbance of dried plates at 560 nm determined. Virus-induced cytopathicity was then calculated according to the formula [% rel. CPE=100-(experimental-minimum)/(maximum-minimum)*100], with minimum referring to infected, vehicle-treated wells and maximum to mock-infected wells.

MV-Alaska [3] = assay: Virus yield (virus titer) reduction assay; type: cell-based, Measles virus (MeV); settings: Measles morbillivirus
[4] = Pharmacokinetic study in rat, plasma concentration after dosing; type: in vivo, Sprague-Dawley rat; settings: for AUC(0-inf) / AUC (0-t) / Cmax / Tmax / half-life: suspension in PEG200/0.5% methylcellulose (10/90); for AUC (0-t): read-out: AUC (0-t); for Cmax: read-out: Cmax; for Tmax: read-out: Tmax; for half-life: read-out: T½ (converted)
Description: Preliminary pharmacokinetic (PK) studies in the Sprague-Dawley rat compared AS-136a with compounds 2k and 2o following p.o. dosing by oral gavage at 10 mg/kg and 50 mg/kg in a PEG200/0.5% methylcellulose (10/90) vehicle (n=4/group).
The data from the preliminary pharmacokinetic studies using the 6-hour time point are reported for comparison purposes. […] On the basis of its excellent in vitro potency, good solubility and pharmacokinetic profile, compound 2o was chosen for further bioavailability evaluation.

[5] = Sprague-Dawley, plasma, oral 10 mg/kg
[6] = Sprague-Dawley, plasma, oral 50 mg/kg

Aqueous solubility (μg/ml) Test ([1]; Nephelometer, buffer pH=7.4): 67 µg/mL
EC50 (MV-Alaska [2]; Table 2, phenyl and acyclic series, read-out: EC50 (μM) (MV-Alaska) (CPE inhibition)): 4.5 µM
Structure (SMILES): Cn1nc(C(F)(F)F)cc1C(=O)Nc1ccc(S(=O)(=O)c2ccccc2O)cc1 [Compound 3c, N-(4-((2-hydroxyphenyl)sulfonyl)phenyl)-1-methyl-3-(trifluoromethyl)-pyrazole-5-carboxamide]
CC50 (MTT cytotoxicity): ≥ 75 µM

AUC(0-inf) [4, 5]: 818 ng·h/mL
AUC (0-t) [4, 5]: 683 ng·h/mL
Cmax [4, 5]: 195 ng/mL
Tmax [4, 5]: 1.1 h
half-life [4, 5]: 2.2 h
AUC(0-inf) [4, 6]: 7860 ng·h/mL
AUC (0-t) [4, 6]: 3520 ng·h/mL
Cmax [4, 6]: 823 ng/mL
Tmax [4, 6]: 1.5 h
half-life [4, 6]: 6.5 h
bioavailability ([4]; Sprague-Dawley, plasma, oral, 2 mg/kg i.v. and 10 mg/kg p.o., read-out: oral bioavailability (F)): 39%
exposure (AUC/Cmax) increase in rat relative to AS-136a ([4]; p.o.): 10 fold
dose proportionality ([4]; p.o., range of 10 mg/kg to 50 mg/kg): near dose proportionality
solubility ([1]; Nephelometer, read-out: Aqueous solubility (μg/ml) Test): 60 µg/mL (≈ 113 µM)
solubility ([1]; nephelometry, read-out: aqueous solubility): ~60 µg/mL (≈ 113 µM)
EC50 (MV-Alaska [2]; Table 1, piperidine series, read-out: EC50 (μM) (MV-Alaska) (CPE inhib.)): 4.5 µM
EC50 (MV-Alaska [2]; Table 3, averages of four experiments, concentration range 2.3-75 μM, read-out: EC50 (μM) (MV-Alaska) CPE inhibition): 4.5 µM
Structure (SMILES): Cn1nc(C(F)(F)F)cc1C(=O)Nc1ccc(S(=O)(=O)N2CCCCC2CCN2CCOCC2)cc1 (single isomer, unassigned) [Compound 2o, 1-methyl-N-(4-((2-(2-morpholinoethyl)piperidin-1-yl)sulfonyl)phenyl)-3-(trifluoromethyl)-pyrazole-5-carboxamide]
EC50 (MV-Alaska [3]; MV-Alaska, read-out: EC50 in the virus titer reduction assay): 0.02 µM
EC50 (MV-Alaska [3]; averages of two to four experiments ± SEM, highest concentration assessed 1 μM, read-out: EC50 (μM) (MV-Alaska) virus titer reduction): 0.02 µM
CC50 (MTT cytotoxicity): > 75 µM
